These results are taken from patent publication US20140363898A1, “METHOD FOR THE IDENTIFICATION OF BETA-SHEET AGGREGATED PROTEIN LIGANDS” (Hoffmann-La Roche Inc., priority 2011, published 2014).

Assay [1] concerns the target T1, aggregated Tau (recombinant human microtubule associated protein Tau) (Homo sapiens, UniProt P10636).
T1 construct: made in house; host or cells: E. coli
Description: Thiazine-red fluorescence displacement assay on aggregated tau. As to conditions: displacement of Thiazin-red at the high affinity binding site; compound 0.3 nM to 10000 nM; 30 min room temperature; average of different experiments; read-out: aggr. TAU IC50. The protocol: (§1) Recombinant human-microtubule associated protein Tau purified from E. coli is aggregated at a concentration of 5 μM with Arachidonic Acid (100 μM) in Tris 10 mM pH8, 24h at 37° C. Synthetic Aβ40 is aggregated with Arachidonic Acid (100 μM) in Tris 10 mM pH8, for three days at 37° C., under shaking at 150 rpm. […] In parallel, auto fluorescence of the compound is measured together with the aggregated proteins, but without Thiazin-red. As negative control, ligand and aggregated protein is used and as positive control, Thiazin-red, reference compound with known activity and aggregated protein is used. Assay is performed in Perkin Elmer OptiPlate 384, black, 45 ul assay volume, assay buffer is DPBS no CaCl2 no MgCl2 (GIBCO N. 14020). Tested compounds are diluted in DMSO and 2 μl is added to the assay (5% DMSO final). Assay is started by the addition of the aggregated protein (competitive condition). Plates are shortly shacked (1 min with Sterico variomag teleshake) and incubated for 30 min at room temperature. Measurement are done with En:Vision (Perkin Elmer), at Excitation 531 nm/Emission 595 nm.

Assay [2] deals with T2, aggregated alpha-synuclein (human recombinant) (Homo sapiens, UniProt P37840).
T2 construct: made in house; host or cells: E. coli
Description: Thiazine-red fluorescence displacement assay on aggregated alpha-synuclein. As to conditions: displacement of Thiazin-red at the high affinity binding site; compound 0.3 nM to 10000 nM; 30 min room temperature; average of different experiments; read-out: aggr. α-syn IC50. As to the method:
Human recombinant-Alpha-synuclein-purified from E. coli is aggregated with Arachidonic Acid (100 μM) in Tris 10 mM pH 8, for 5 days at 37° C., under shaking at 150 rpm.
Thiazin-red will be added at the concentration corresponding to the Kd to the respective aggregated protein binding site, to induce a fluorescent signal that can be inhibited by the addition of a displacer compound
In parallel, auto fluorescence of the compound is measured together with the aggregated proteins, but without Thiazin-red. As negative control, ligand and aggregated protein is used and as positive control, Thiazin-red, reference compound with known activity and aggregated protein is used.
Assay is performed in Perkin Elmer OptiPlate 384, black, 45 ul assay volume, assay buffer is DPBS no CaCl2 no MgCl2 (GIBCO N. 14020). Tested compounds are diluted in DMSO and 2 μl is added to the assay (5% DMSO final). Assay is started by the addition of the aggregated protein (competitive condition). Plates are shortly shacked (1 min with Sterico variomag teleshake) and incubated for 30 min at room temperature. Measurement are done with En:Vision (Perkin Elmer), at Excitation 531 nm/Emission 595 nm.

For assay [3], the target named is T3, aggregated Aβ40 (synthetic) (Homo sapiens, UniProt P05067).
T3 construct: Id; No. 4; host or cells: synthetic peptide
T3 sequence (P05067 672-711): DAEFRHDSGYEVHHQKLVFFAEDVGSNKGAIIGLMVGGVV
Description: Thiazine-red fluorescence displacement assay on aggregated Aβ40. As to conditions: displacement of Thiazin-red at the high affinity binding site; compound 0.3 nM to 10000 nM; 30 min room temperature; average of different experiments; read-out: aggr. Aβ40 IC50. As to the method:
as §1

Each structure is given as a SMILES string.

T1 sequence (P10636 1-441 isoform P10636-8): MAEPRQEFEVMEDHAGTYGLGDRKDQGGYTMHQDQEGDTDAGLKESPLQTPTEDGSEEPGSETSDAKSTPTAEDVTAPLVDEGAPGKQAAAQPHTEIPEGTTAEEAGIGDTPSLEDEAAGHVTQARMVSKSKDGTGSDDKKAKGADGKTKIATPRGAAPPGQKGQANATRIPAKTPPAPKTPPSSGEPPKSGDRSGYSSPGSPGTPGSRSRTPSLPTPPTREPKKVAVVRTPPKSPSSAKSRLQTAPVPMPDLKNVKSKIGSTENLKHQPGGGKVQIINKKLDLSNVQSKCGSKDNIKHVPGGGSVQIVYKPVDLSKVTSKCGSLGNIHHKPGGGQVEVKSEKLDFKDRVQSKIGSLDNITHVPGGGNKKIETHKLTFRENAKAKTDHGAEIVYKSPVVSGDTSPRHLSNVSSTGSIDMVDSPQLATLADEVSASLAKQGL

Broadly, the IC50 is the point on the concentration scale where inhibition reaches its midpoint. Take `CNc1ccc(-c2nc3ccc(O)cc3s2)cn1` [AZD2184]: the IC50 in assay [1] is 9800 nM; in assay [2], above 10000 nM; in assay [3] it was above 10000 nM.
As for `CNc1ccc(-c2ccc3ccccc3n2)cc1` [BF-158], the IC50 in assay [1], in assay [2] and in assay [3] was above 10000 nM in each case.
For `O=C(O)c1cc(/C=C/c2ccc(/C=C/c3ccc(O)c(C(=O)O)c3)c(Br)c2)ccc1O` [BSB], the IC50 in assay [1] was 18.4 nM; in assay [2] it was 36.3 nM; in assay [3], 78.4 nM.
As for `Nc1c(/N=N/c2ccc(-c3ccc(/N=N/c4cc(S(=O)(=O)O)c5ccccc5c4N)cc3)cc2)cc(S(=O)(=O)O)c2ccccc12` [Congo Red], the values for the IC50 in assay [1], in assay [2] and in assay [3] were 5.4 nM, 4.4 nM and 13.6 nM, respectively.
The like results for `CN(C)c1ccc(C(=C2C=CC(=[N+](C)C)C=C2)c2ccc(N(C)C)cc2)cc1` [Crystal Violet] were, in that order, 1550 nM, 1720 nM and 1280 nM.
`Cc1cc(-c2ccc(/N=N/c3ccc4c(S(=O)(=O)O)cc(S(=O)(=O)O)c(N)c4c3O)c(C)c2)ccc1/N=N/c1ccc2c(S(=O)(=O)O)cc(S(=O)(=O)O)c(N)c2c1O` [Evans Blue]: the half-maximal inhibitory concentration (IC50) in assay [1] was 1 nM; in assay [2], 7.6 nM; in assay [3], 88.8 nM.
The like results for `CC(=C(C#N)C#N)c1ccc2cc(N(C)CCF)ccc2c1` [FDDNP] were, in that order, 1640 nM, 1180 nM and 1470 nM.
As to `CN(C)c1ccc(-c2cn3cc(I)ccc3n2)cc1` [IMPY], the IC50 in assay [1] is 2710 nM; in assay [2], 5700 nM.
Consider `COc1cc(/C=C/c2ccc(O)cc2)ccc1/C=C/c1ccc(O)cc1` [MeXO4], for which the IC50 in assay [1] amounted to 494 nM; in assay [2] it was 239 nM; in assay [3], 307 nM.
With `CNc1ccc(-c2nc3ccc(O)cc3s2)cc1` [PIB], the values for the IC50 in assay [1] and in assay [2] were 3260 nM and 7020 nM, respectively.
